Reference: patent publication US11731967B2, “Inhibitors of TRIM33 and methods of use” (Dana-Farber Cancer Institute, Inc., priority 2017, dated 2023)
Like-named read-outs stand apart in the source and are kept apart here.

How the values were obtained:
TRIM24 = molecular target: T1, TRIM24 (Homo sapiens, UniProt O15164); assay: AlphaScreen binding assay for TRIM24 (counter-screening assay)
T1 sequence (O15164 1-1050): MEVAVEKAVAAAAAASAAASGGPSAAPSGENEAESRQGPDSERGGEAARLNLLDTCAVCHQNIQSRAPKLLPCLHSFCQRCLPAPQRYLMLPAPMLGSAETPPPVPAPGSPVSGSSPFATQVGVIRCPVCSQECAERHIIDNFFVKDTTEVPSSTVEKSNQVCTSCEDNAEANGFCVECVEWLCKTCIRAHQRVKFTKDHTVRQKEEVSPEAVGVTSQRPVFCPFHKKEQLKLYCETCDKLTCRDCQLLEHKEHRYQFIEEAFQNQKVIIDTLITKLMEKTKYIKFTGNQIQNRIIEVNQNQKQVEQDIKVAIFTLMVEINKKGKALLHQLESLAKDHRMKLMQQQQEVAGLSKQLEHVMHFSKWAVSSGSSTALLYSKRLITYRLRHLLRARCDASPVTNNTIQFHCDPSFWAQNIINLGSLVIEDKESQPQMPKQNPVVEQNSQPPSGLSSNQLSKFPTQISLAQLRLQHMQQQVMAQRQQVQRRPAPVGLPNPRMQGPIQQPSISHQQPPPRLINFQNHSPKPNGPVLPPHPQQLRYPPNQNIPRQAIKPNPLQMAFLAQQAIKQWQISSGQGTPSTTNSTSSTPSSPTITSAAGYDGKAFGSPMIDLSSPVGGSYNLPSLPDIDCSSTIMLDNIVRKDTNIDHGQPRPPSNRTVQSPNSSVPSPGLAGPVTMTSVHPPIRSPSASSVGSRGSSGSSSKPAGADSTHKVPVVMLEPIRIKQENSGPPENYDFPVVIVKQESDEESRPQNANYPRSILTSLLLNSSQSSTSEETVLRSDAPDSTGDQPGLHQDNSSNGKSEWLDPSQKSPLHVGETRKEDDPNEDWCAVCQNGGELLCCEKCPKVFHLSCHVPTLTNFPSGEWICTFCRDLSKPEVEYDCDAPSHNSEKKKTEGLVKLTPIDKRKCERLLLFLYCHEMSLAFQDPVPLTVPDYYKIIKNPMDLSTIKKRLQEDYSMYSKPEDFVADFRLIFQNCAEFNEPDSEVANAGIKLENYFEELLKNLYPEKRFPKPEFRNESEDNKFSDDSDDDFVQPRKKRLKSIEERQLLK
Source text: (§1) A compound of the present application can be tested for its TRIM33 and/or TRIM24 activity with AlphaScreen Assay illustrated in FIG. 1.
(§2) Additionally, a second AlphaScreen® binding assay for TRIM24 as counter-screening assay for selectivity of TRIM33 over TRIM24 was developed. A focused compound libraries for TRIM33 inhibitor development was designed and synthesized using the design principle that is to connect the bromodomain binding motif/fragment to proper chemical scaffold via multi-component reactions, such as Groebke-Blackburn-Bienaymé (GBB) coupling reaction, to establish chemically bias library.
(§3) With multiple libraries synthesized (˜400 compounds) as described above, compounds were screened against TRIM33 and TRIM24 by AlphaScreen to establish structure activity relationship (SAR).

[1] = molecular target: T2, recombinant PHD-bromodomain module of TRIM33 (Homo sapiens, UniProt Q9UPN9); assay: AlphaScreen binding assay, TRIM33 with biotinylated H3K9me3K18ac peptide
T2 construct: rows headed: TRIM33 modulating activity; unit not given
T2 sequence (Q9UPN9 1-1127): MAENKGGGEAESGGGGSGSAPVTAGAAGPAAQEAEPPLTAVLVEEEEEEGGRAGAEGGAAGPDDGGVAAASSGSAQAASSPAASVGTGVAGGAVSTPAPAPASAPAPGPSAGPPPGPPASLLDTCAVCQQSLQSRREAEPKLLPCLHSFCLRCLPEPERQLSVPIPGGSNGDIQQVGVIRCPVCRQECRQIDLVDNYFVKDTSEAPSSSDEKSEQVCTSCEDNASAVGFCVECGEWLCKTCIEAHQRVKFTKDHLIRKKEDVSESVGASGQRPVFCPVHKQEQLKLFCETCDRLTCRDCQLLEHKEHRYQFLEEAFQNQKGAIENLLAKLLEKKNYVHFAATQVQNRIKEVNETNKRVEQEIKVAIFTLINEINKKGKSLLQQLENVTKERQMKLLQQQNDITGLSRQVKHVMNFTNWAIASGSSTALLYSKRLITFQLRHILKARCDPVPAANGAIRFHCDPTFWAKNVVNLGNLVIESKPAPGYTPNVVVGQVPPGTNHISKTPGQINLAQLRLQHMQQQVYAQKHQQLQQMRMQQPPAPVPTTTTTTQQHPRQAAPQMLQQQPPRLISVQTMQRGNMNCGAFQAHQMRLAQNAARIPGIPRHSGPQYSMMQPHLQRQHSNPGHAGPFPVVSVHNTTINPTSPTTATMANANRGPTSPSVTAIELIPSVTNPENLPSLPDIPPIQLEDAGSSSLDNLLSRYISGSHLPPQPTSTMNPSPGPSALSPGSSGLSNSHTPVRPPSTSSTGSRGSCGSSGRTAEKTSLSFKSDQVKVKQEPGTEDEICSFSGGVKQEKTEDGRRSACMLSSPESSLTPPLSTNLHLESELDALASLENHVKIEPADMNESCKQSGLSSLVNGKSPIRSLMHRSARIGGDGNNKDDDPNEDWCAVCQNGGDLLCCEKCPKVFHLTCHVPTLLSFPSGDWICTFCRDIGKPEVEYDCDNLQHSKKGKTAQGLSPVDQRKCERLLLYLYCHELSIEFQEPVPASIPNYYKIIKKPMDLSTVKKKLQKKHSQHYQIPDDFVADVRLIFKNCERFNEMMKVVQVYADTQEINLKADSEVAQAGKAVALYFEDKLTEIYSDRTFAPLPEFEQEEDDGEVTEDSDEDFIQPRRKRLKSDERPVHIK
Source text: (§4) The IC50 or EC50 of the compound of the present application can be determined by various methods known in the art. For example, the IC50 or EC50 of the compound of the present application can be measured by an AlphaScreen assay, as described herein (see FIG. 1).
as §1, §2, §3

[2] = system: recombinant PHD-bromodomain module of TRIM33; assay: as above; conditions: compounds shown in Table 2a
Source text: as §4, §1, §2, §3

[3] = compounds shown in FIG. 14A (Table 8), read-out: TRIM 24 IC50
[4] = compounds shown in FIG. 14A (Table 8), read-out: TRIM 33 IC50
[5] = compounds shown in Table 2a, called TRIM33 IC50 in title of Table 5, unit inferred, read-out: TRIM33 modulating activity
[6] = compounds shown in FIG. 13A (Table 7), read-out: TRIM 24 IC50
[7] = compounds shown in FIG. 13A (Table 7), read-out: TRIM 33 IC50
[8] = compounds with R7/R7′ shown in FIG. 11A (Table 6), read-out: IC50 TRIM33

COC(=O)c1ccc2nc(-c3nc[nH]c3C)c(NCCN3CCOCC3)n2c1 [pck-9295-060]
IC50 (TRIM24; [3]): 0.308 µM
IC50 [1, 4]: 1.93 µM

COc1ccc(CCNc2c(-c3nc(C)n4ccccc34)nc3ccccn23)cc1OC [pck-9295-173]
IC50 (TRIM24; [3]): 9.44 µM
IC50 [1, 4]: 44.3 µM

COc1ccc(CCNc2c(-c3ccc4nccn4c3)nc3ccccn23)cc1OC [Compound C2]
Ratio of TRIM24 IC50 over TRIM33 IC50 [2]: 60.92
IC50 [1, 5]: 24.9 µM

CCCOc1ccn2c(C(C)=O)cc(-c3nc4ccc(C(=O)OC)cn4c3NC3CCCCC3)c2c1 [Compound H1]
Ratio of TRIM24 IC50 over TRIM33 IC50 [2]: 7.82
IC50 [1, 5]: 32.6 µM

COCCNc1c(-c2nc[nH]c2C)nc2ccc(C(=O)OC)cn12 [Compound F3]
Ratio of TRIM24 IC50 over TRIM33 IC50 [2]: 11.61
IC50 [1, 5]: 44 µM

Cc1[nH]cnc1-c1nc2ccccn2c1NCCN1CCOCC1 [pck-9295-013]
IC50 (TRIM24; [6]): 0.746 µM
IC50 [1, 7]: 3.78 µM

CCCOc1ccn2c(C(C)=O)cc(-c3nc4cnccn4c3NCCOC)c2c1 [Compound D9]
Ratio of TRIM24 IC50 over TRIM33 IC50 [2]: 20.66
IC50 [1, 5]: 138 µM

COc1ccc(CCNc2c(-c3c[nH]c(C)n3)nc3cnccn23)cc1OC [Compound A8]
IC50 [1, 5]: 269 µM

COC(=O)c1ccc2nc(-c3nc[nH]c3C)c(NCCc3ccc(OC)c(OC)c3)n2c1 [Compound F2]
Ratio of TRIM24 IC50 over TRIM33 IC50 [2]: 29.84
IC50 [1, 5]: 12.6 µM

CC(C)(C)Nc1c(-c2c(O)ccc3ccccc23)nc2ccccn12 [pck-9295-029]
IC50 (TRIM24; [6]): 7.76 µM
IC50 [1, 7]: 7.45 µM

COCCNc1c(-c2nc[nH]c2C)nc2ccc(Br)cn12 [Compound F9]
Ratio of TRIM24 IC50 over TRIM33 IC50 [2]: 3.62
IC50 [1, 5]: 37 µM

CCCOc1cc(OCCCCN(C)C)cc(Oc2cc3c(cc2NS(=O)(=O)c2ccc(OC)c(OC)c2)n(C)c(=O)n3C)c1 [IACS9571, reference compound]
IC50 [1, 4]: 6.32 µM
IC50 [1, 5]: 10.6 µM
IC50 [1, 8]: 13.4 µM

Cc1[nH]cnc1-c1nc2ccc(Br)cn2c1NCCN1CCOCC1 [Compound F10]
Ratio of TRIM24 IC50 over TRIM33 IC50 [2]: 4.48
IC50 [1, 5]: 26.2 µM

COCCNc1c(-c2ccco2)nc2ccc(C(=O)OC)cn12 [pck-9295-032]
IC50 [1, 7]: 21.8 µM

COCCNc1c(-c2ccc3nccn3c2)nc2ccc(C(=O)OC)cn12 [Compound G3]
Ratio of TRIM24 IC50 over TRIM33 IC50 [2]: 78.61
IC50 [1, 5]: 357 µM

COc1ccc(CCNc2c(-c3c[nH]c(C)n3)nc3ccc(Br)cn23)cc1OC [Compound E8]
Ratio of TRIM24 IC50 over TRIM33 IC50 [2]: 18.38
IC50 [1, 5]: 3.46 µM

COc1ccc(Nc2c(-c3nc[nH]c3C)nc3ccccn23)cc1 [pck-9295-014]
IC50 (TRIM24; [6]): 0.356 µM
IC50 [1, 7]: 0.641 µM

Brc1ccc2nc(-c3ccc4nccn4c3)c(NCCN3CCOCC3)n2c1 [Compound G10]
Ratio of TRIM24 IC50 over TRIM33 IC50 [2]: 6.43
IC50 [1, 5]: 214 µM

COc1ccc(CCNc2c(-c3cn(S(=O)(=O)c4ccc(C)cc4)c4ccccc34)nc3ccccn23)cc1OC [pck-9295-174]
IC50 (TRIM24; [3]): 0.584 µM
IC50 [1, 4]: 0.553 µM

CCCOc1ccn2c(C(C)=O)cc(-c3nc4ccc(C(=O)OC)cn4c3NCCOC)c2c1 [Compound H3]
Ratio of TRIM24 IC50 over TRIM33 IC50 [2]: 37.43
IC50 [1, 5]: 77 µM

CCCOc1ccn2c(C(C)=O)cc(-c3ccccc3S(C)(=O)=O)c2c1 [GS-A, reference compound]
IC50 [1, 5]: 50.9 µM

CCOC(=O)CNc1c(-c2ccco2)nc2ccc(C(=O)OC)cn12 [pck-9295-035]
IC50 (TRIM24; [6]): 5.25 µM
IC50 [1, 7]: 10.8 µM

Cc1sc2c(c1C)C(c1ccc(Cl)cc1)=N[C@@H](CC(=O)NCCCCCCCCNC(=O)COc1cccc3c1C(=O)N(C1CCC(=O)NC1=O)C3=O)c1nnc(C)n1-2 (stereo partly drawn) [dBET6, reference compound]
IC50 (TRIM24; compounds with R7/R7′ shown in FIG. 11A (Table 6), read-out: IC50 TRIM24): 1.96 µM
IC50 [1, 8]: 4.69 µM

CCCOc1ccn2c(C(C)=O)cc(-c3nc4ccc(C(=O)OC)cn4c3NCCc3ccc(OC)c(OC)c3)c2c1 [Compound H2]
Ratio of TRIM24 IC50 over TRIM33 IC50 [2]: 463.20
IC50 [1, 5]: 12.2 µM

COCCNc1c(-c2c[nH]c(C)n2)nc2cnccn12 [Compound A9]
Ratio of TRIM24 IC50 over TRIM33 IC50 [2]: 321.31
IC50 [1, 5]: 286 µM

Cc1nc[nH]c1-c1nc2ccc(C(=O)NN)cn2c1NCCN1CCOCC1 [pck-9295-134]
IC50 (TRIM24; [3]): 0.303 µM
IC50 [1, 4]: 1.29 µM

COC(=O)c1ccc2nc(-c3nc[nH]c3C)c(NC3CCCCC3)n2c1 [Compound F1]
Ratio of TRIM24 IC50 over TRIM33 IC50 [2]: 7.89
IC50 [1, 5]: 18.1 µM

Cc1[nH]cnc1-c1nc2cnccn2c1NC1CCCCC1 [Compound B7]
Ratio of TRIM24 IC50 over TRIM33 IC50 [2]: 0.78
IC50 [1, 5]: 116 µM

COc1ccc(Nc2c(-c3c[nH]c(C)n3)nc3ccc(Br)cn23)cc1 [pck-9295-016]
IC50 (TRIM24; [6]): 0.818 µM
IC50 [1, 7]: 0.538 µM

COc1ccc(CCNc2c(-c3c[nH]c(C)n3)nc3ccccn23)cc1OC [Compound A2]
Ratio of TRIM24 IC50 over TRIM33 IC50 [2]: 32.77
IC50 [1, 5]: 1.36 µM

Brc1ccc2nc(-c3ccc4nccn4c3)c(NC3CCCCC3)n2c1 [Compound G7]
Ratio of TRIM24 IC50 over TRIM33 IC50 [2]: 0.83
IC50 [1, 5]: 121 µM
